According to ChEMBL document CHEMBL1201862, “PubChem BioAssay data set” (2004):
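Five concentrations, 48 hours, 96-well plates. GI50 is the concentration that inhibits growth by half.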 Activity calls are given as the source filed them. Cut-off read from the data, not from the text of the source: active = GI50 up to about 1.1 µM and inactive = higher.

Legend:
Assay in all cases: NCI-60 cell line screen, 48 h
SK-MEL-2 = tested on: SK-MEL-2
DMS-273 = tested on: DMS-273
UACC-257 = tested on: UACC-257
RXF 393 = tested on: RXF 393
M19-MEL = tested on: M19-MEL
SF-268 = tested on: SF-268
CAKI-1 = tested on: CAKI-1
SN12C = tested on: SN12C
M14 = tested on: M14
NCI-H226 = tested on: NCI-H226
HCC 2998 = tested on: HCC 2998
LOX IMVI = tested on: LOX IMVI
A549 = tested on: A549
SNB-19 = tested on: SNB-19
OVCAR-3 = tested on: OVCAR-3
SK-OV-3 = tested on: SK-OV-3
PC-3 = tested on: PC-3
T47D = tested on: T47D
MDA-MB-231 = tested on: MDA-MB-231
MDA-N = tested on: MDA-N

| Compound | GI50 (SK-MEL-2) | GI50 (DMS-273) | GI50 (UACC-257) | GI50 (RXF 393) | GI50 (M19-MEL) | GI50 (SF-268) | GI50 (CAKI-1) | GI50 (SN12C) | GI50 (M14) | GI50 (NCI-H226) | GI50 (HCC 2998) | GI50 (LOX IMVI) | GI50 (A549) | GI50 (SNB-19) | GI50 (OVCAR-3) | GI50 (SK-OV-3) | GI50 (PC-3) | GI50 (T47D) | GI50 (MDA-MB-231) | GI50 (MDA-N) |
| --- | --- | --- | --- | --- | --- | --- | --- | --- | --- | --- | --- | --- | --- | --- | --- | --- | --- | --- | --- | --- |
| O=C1/C(=C/c2ccc(Cl)cc2)CCC1CCN1CCOCC1 (stereo not given) | > 100 µM (inactive) | 57 µM (inactive) | > 100 µM (inactive) | 47.9 µM (inactive) | 72.9 µM (inactive) | 54.3 µM (inactive) | 76.2 µM (inactive) | 72.1 µM (inactive) | > 100 µM (inactive) | > 100 µM (inactive) | 46.9 µM (inactive) | 39.8 µM (inactive) | > 100 µM (inactive) | > 100 µM (inactive) | 59.3 µM (inactive) |  |  |  |  |  |
| COc1ccc2c(c1)c(Cc1c(C)n(C)c3ccc(OC)cc13)c(C)n2C | > 100 µM (inactive) | > 100 µM (inactive) | > 100 µM (inactive) | 47.8 µM (inactive) | > 100 µM (inactive) | > 100 µM (inactive) | > 100 µM (inactive) | > 100 µM (inactive) | > 100 µM (inactive) | > 100 µM (inactive) |  | > 100 µM (inactive) | > 100 µM (inactive) | > 100 µM (inactive) | > 100 µM (inactive) | > 100 µM (inactive) |  |  |  |  |
| O=C1OC(c2ccccc2)=N/C1=C/NC(Cc1c[nH]cn1)C(=O)O (stereo not given) | > 100 µM (inactive) | > 100 µM (inactive) | > 100 µM (inactive) | > 100 µM (inactive) | > 100 µM (inactive) | > 100 µM (inactive) |  | > 100 µM (inactive) | > 100 µM (inactive) | > 100 µM (inactive) | > 100 µM (inactive) | > 100 µM (inactive) | > 100 µM (inactive) | > 100 µM (inactive) | > 100 µM (inactive) | > 100 µM (inactive) |  |  |  |  |
| Cc1cc(=O)cc2sc3c(C)cccc3nc1-2 | 17.7 µM (inactive) | 83.6 µM (inactive) | 62.8 µM (inactive) | 35.4 µM (inactive) | 19.5 µM (inactive) | 11.5 µM (inactive) | 39.9 µM (inactive) | 23.6 µM (inactive) | 21.8 µM (inactive) |  | 51.4 µM (inactive) | 17.3 µM (inactive) | 63.5 µM (inactive) | > 100 µM (inactive) | 15.5 µM (inactive) | > 100 µM (inactive) |  |  |  |  |
| Cc1ccc(S(=O)(=O)N2CCN(C=S)CC2)cc1 | > 100 µM (inactive) | > 100 µM (inactive) | > 100 µM (inactive) | > 100 µM (inactive) | > 100 µM (inactive) | > 100 µM (inactive) |  | > 100 µM (inactive) | > 100 µM (inactive) |  | > 100 µM (inactive) | > 100 µM (inactive) | > 100 µM (inactive) | > 100 µM (inactive) | > 100 µM (inactive) | > 100 µM (inactive) |  |  |  |  |
| O=C(CC1Sc2ccccc2NC1=O)Nc1cccc(Cl)c1 (stereo not given) | 39 µM (inactive) | 28.2 µM (inactive) | > 100 µM (inactive) | 33.3 µM (inactive) | 81.5 µM (inactive) | 34.9 µM (inactive) | 33 µM (inactive) | 48.2 µM (inactive) | 38.3 µM (inactive) | 26.8 µM (inactive) | 89.3 µM (inactive) | 20.3 µM (inactive) | 43.8 µM (inactive) | 46.9 µM (inactive) | 27 µM (inactive) |  |  |  |  |  |
| CS(=O)(=O)c1nc(Cl)c(Cl)c(C#N)c1Cl | 5.37 µM (inactive) | 6.68 µM (inactive) | 2.49 µM (inactive) | 1.61 µM (inactive) |  | 6.76 µM (inactive) | 0.984 µM (active) | 2.27 µM (inactive) | 1.91 µM (inactive) | 13.2 µM (inactive) | 14.2 µM (inactive) | 1.95 µM (inactive) | 18.7 µM (inactive) | 19.8 µM (inactive) | 2.08 µM (inactive) | 6.75 µM (inactive) | 5.35 µM (inactive) | 2.16 µM (inactive) | 0.619 µM (active) | 1.83 µM (inactive) |
| CC12N=NNC1C(=O)NC2=O (stereo not given) | > 100 µM (inactive) | > 100 µM (inactive) | > 100 µM (inactive) |  | > 100 µM (inactive) | > 100 µM (inactive) | > 100 µM (inactive) | > 100 µM (inactive) |  | > 100 µM (inactive) | > 100 µM (inactive) | > 100 µM (inactive) | > 100 µM (inactive) | > 100 µM (inactive) | > 100 µM (inactive) | > 100 µM (inactive) |  |  |  |  |
| COC(=O)CCC(=O)Nc1cccc(C(F)(F)F)c1 | > 100 µM (inactive) | > 100 µM (inactive) | > 100 µM (inactive) | > 100 µM (inactive) | > 100 µM (inactive) | > 100 µM (inactive) | > 100 µM (inactive) | > 100 µM (inactive) | > 100 µM (inactive) |  | > 100 µM (inactive) | > 100 µM (inactive) | > 100 µM (inactive) | > 100 µM (inactive) | > 100 µM (inactive) | > 100 µM (inactive) |  |  |  |  |
| Cc1cc2c(C)nn(Cc3ccc(Cl)cc3Cl)c2c(C#N)c1C | > 100 µM (inactive) | > 100 µM (inactive) | 37.8 µM (inactive) | 67 µM (inactive) | > 100 µM (inactive) | > 100 µM (inactive) |  | > 100 µM (inactive) |  | > 100 µM (inactive) | > 100 µM (inactive) | > 100 µM (inactive) | 86.3 µM (inactive) | > 100 µM (inactive) | > 100 µM (inactive) | > 100 µM (inactive) |  |  |  |  |
| S=C1SCC2CCCN12 (stereo not given) | > 100 µM (inactive) | > 100 µM (inactive) | > 100 µM (inactive) | > 100 µM (inactive) | > 100 µM (inactive) | > 100 µM (inactive) | > 100 µM (inactive) | > 100 µM (inactive) | > 100 µM (inactive) |  | > 100 µM (inactive) | > 100 µM (inactive) | > 100 µM (inactive) | > 100 µM (inactive) |  | > 100 µM (inactive) |  |  |  |  |
| CN1CCc2c1nc(-c1ccc(Cl)cc1)c1c2N(C)CC1 | > 100 µM (inactive) | 14 µM (inactive) | 13.7 µM (inactive) | 10.9 µM (inactive) | 9.14 µM (inactive) | 21.5 µM (inactive) | 6.44 µM (inactive) | 23.1 µM (inactive) | 7.71 µM (inactive) |  | 19.4 µM (inactive) | 5.01 µM (inactive) | 18.3 µM (inactive) | 22.5 µM (inactive) | 1.51 µM (inactive) | 21.2 µM (inactive) |  |  |  |  |
| CC(C)(C)[Si](C)(C)OC1C(=O)C[C@H]2CCCC[C@@H]12 (stereo not given in full) | > 100 µM (inactive) | > 100 µM (inactive) | > 100 µM (inactive) | > 100 µM (inactive) | 87.9 µM (inactive) | > 100 µM (inactive) | > 100 µM (inactive) | > 100 µM (inactive) | > 100 µM (inactive) |  | > 100 µM (inactive) | > 100 µM (inactive) | > 100 µM (inactive) | > 100 µM (inactive) | > 100 µM (inactive) | > 100 µM (inactive) |  |  |  |  |
| NC1CCC[C@H]1O (stereo not given in full) | > 100 µM (inactive) | > 100 µM (inactive) | > 100 µM (inactive) | > 100 µM (inactive) | > 100 µM (inactive) | > 100 µM (inactive) |  | > 100 µM (inactive) | > 100 µM (inactive) | > 100 µM (inactive) | > 100 µM (inactive) | > 100 µM (inactive) | > 100 µM (inactive) | > 100 µM (inactive) | > 100 µM (inactive) | > 100 µM (inactive) |  |  |  |  |
